# According to patent publication US4769384A, “Benzimidazole derivatives” (Nippon Shinyaku Co. Ltd., priority 1985, dated 1988):
# Tests used:
# Assay type in all cases: in vivo
# [1] = Acute toxicity, oral, rats; conditions: p.o., two weeks
# Protocol: (§1) Method: Male mice of six weeks of age or male rats of six weeks of age were fasted for 24 hours and subjected to the test.
# (§2) The compound to be tested was suspended in physiological saline solution containing 0.5% of methylcellulose. The suspension was administered orally.
# [2] = Anti-ulcer action: water-immersion stress ulcer in rats, oral (ulcer index); conditions: per os
# Protocol: Biological test method: Male rats of seven weeks of age were fasted for 24 hours and subjected to the test. The compound to be tested was suspended in a physiological saline solution containing 0.5% methylcellulose therein. 10 ml/kg of it was administered orally. The animals were immediately placed in a stress cage and immersed in a water bath of 23° C. to the depth of xiphoid. After 17 hours, they were sacrificed by cervical dislocation. The stomach was isolated therefrom. 7 ml of 2% formaline solution was introduced into the stomach for fixation. Then the stomach was cut along a greater curvature. The length of ulcer produced in fundus was measured under a microscope and the total ulcer length (in mm) was defined as an ulcer index per rat. Significance between mean ulcer indices was verified by the Student t-test.
# [3] = Acute toxicity, oral, mice; conditions: p.o., two weeks
# Protocol: as §1, §2
# [4] = 10 mg/kg (# dose of salt as the corresponding base)
# [5] = 20 mg/kg (# dose of salt as the corresponding base)
# [6] = 40 mg/kg (# dose of salt as the corresponding base)
# [7] = 80 mg/kg (# dose of salt as the corresponding base)
# [8] = 5 mg/kg (# dose of salt as the corresponding base), 5 mg/kg
# [9] = 10 mg/kg (# dose of salt as the corresponding base), 10 mg/kg
# [10] = 20 mg/kg (# dose of salt as the corresponding base), 20 mg/kg
# [11] = 5 mg/kg (# dose of salt as the corresponding base)
smiles,measurement,setting,value
"COC(=O)c1cccc2nc(/C=C/c3ccc(OC)c(OC)c3)[nH]c12 [1 (phosphate), Methyl (E)-2-(3,4-dimethoxystyryl)benzimidazole-4-carboxylate]",Death Ratio,[1]; 2580 mg/kg,0/4
same,Antiulcer Action (inhibition %) after 17 hours,[2]; [4],66%
same,Antiulcer Action (inhibition %) after 17 hours,[2]; [5],92%
same,Death Ratio,[3]; 2580 mg/kg,0/3
"CN/C(=N/CCSCc1nc[nH]c1C)NC#N [Cimetidine, reference compound]",Antiulcer Action (inhibition %) after 17 hours,[2]; 200 mg/kg,66%
"COC(=O)c1cccc2nc(/C=C/c3ccc(OC)c(OC)c3)[nH]c12 [Example 1, Methyl (E)-2-(3,4-dimethoxystyryl)benzimidazole-4-carboxylate]",Death Ratio,[1]; 2000 mg/kg,1/4
same,Antiulcer Action (inhibition %) after 17 hours,[2]; 10 mg/kg,40%
same,Antiulcer Action (inhibition %) after 17 hours,[2]; 20 mg/kg,78%
same,Antiulcer Action (inhibition %) after 17 hours,[2]; 40 mg/kg,97%
same,Death Ratio,[3]; 2000 mg/kg,0/5
"COC(=O)c1cccc2nc(/C=C/c3ccc(OC)cc3)[nH]c12 [Example 14, Methyl (E)-2-(4-methoxystyryl)benzimidazole-4-carboxylate]",Death Ratio,[1]; 2000 mg/kg,0/4
same,Antiulcer Action (inhibition %) after 17 hours,[2]; 20 mg/kg,26%
same,Antiulcer Action (inhibition %) after 17 hours,[2]; 40 mg/kg,81%
same,Antiulcer Action (inhibition %) after 17 hours,[2]; 80 mg/kg,96%
"C#CCOc1ccc(/C=C/c2nc3c(C(=O)OC)cccc3[nH]2)cc1 [Example 30, Methyl (E)-2-[4-(2-propynyloxy)styryl]benzimidazole-4-carboxylate phosphate]",Antiulcer Action (inhibition %) after 17 hours,[2]; [5],44%
same,Antiulcer Action (inhibition %) after 17 hours,[2]; [6],55%
same,Antiulcer Action (inhibition %) after 17 hours,[2]; [7],82%
"CCOc1ccc(/C=C/c2nc3cccc(C(=O)OC)c3[nH]2)cc1OC.O=P(O)(O)O [Example 53, Methyl (E)-2-(4-ethoxy-3-methoxystyryl)benzimidazole-4-carboxylate phosphate]",Antiulcer Action (inhibition %) after 17 hours,[2]; [5],81%
same,Antiulcer Action (inhibition %) after 17 hours,[2]; [6],99%
same,Antiulcer Action (inhibition %) after 17 hours,[2]; [7],99%
"COC(=O)c1cccc2nc(/C=C/c3ccc(OC)cc3)[nH]c12.O=P(O)(O)O [Example 54, Methyl (E)-2-(4-methoxystyryl)benzimidazole-4-carboxylate phosphate]",Death Ratio,[1]; 2636 mg/kg,0/4
same,Antiulcer Action (inhibition %) after 17 hours,[2]; [5],55%
same,Antiulcer Action (inhibition %) after 17 hours,[2]; [6],86%
same,Antiulcer Action (inhibition %) after 17 hours,[2]; [7],98%
"COC(=O)c1cccc2nc(/C=C/c3ccc(OC)c(OC)c3)[nH]c12 [Example 65, Methyl (E)-2-(3,4-dimethoxystyryl)benzimidazole-4-carboxylate d-10-camphorsulfonate]",Antiulcer Action (inhibition %) after 17 hours,[2]; [8],12%
same,Antiulcer Action (inhibition %) after 17 hours,[2]; [9],69%
same,Antiulcer Action (inhibition %) after 17 hours,[2]; [10],89%
same,Death Ratio,[3]; 3440 mg/kg,2/5
"COC(=O)c1cccc2[nH]c(/C=C/c3ccc(OC)c(OC)c3)nc12 [Example 66, Methyl (E)-2-(3,4-dimethoxystyryl)benzimidazole-4-carboxylate 1-naphthalenesulfonate]",Antiulcer Action (inhibition %) after 17 hours,[2]; [8],7%
same,Antiulcer Action (inhibition %) after 17 hours,[2]; [9],63%
same,Antiulcer Action (inhibition %) after 17 hours,[2]; [10],87%
"COC(=O)c1cccc2nc(/C=C/c3ccc(OC)c(OC)c3)[nH]c12.O=S(=O)(O)O [Example 67, Methyl (E)-2-(3,4-dimethoxystyryl)benzimidazole-4-carboxylate sulfate]",Antiulcer Action (inhibition %) after 17 hours,[2]; [11],48%
same,Antiulcer Action (inhibition %) after 17 hours,[2]; [4],72%
"Br.COC(=O)c1cccc2nc(/C=C/c3ccc(OC)c(OC)c3)[nH]c12 [Example 69, Methyl (E)-2-(3,4-dimethoxystyryl)benzimidazole-4-carboxylate hydrobromide]",Antiulcer Action (inhibition %) after 17 hours,[2]; [11],38%
same,Antiulcer Action (inhibition %) after 17 hours,[2]; [4],82%
same,Death Ratio,[3]; 2560 mg/kg,2/5
"COC(=O)c1cccc2nc(/C=C/c3ccc(OC)c(OC)c3)[nH]c12.Cl [Example 70, Methyl (E)-2-(3,4-dimethoxystyryl)benzimidazole-4-carboxylate hydrochloride]",Antiulcer Action (inhibition %) after 17 hours,[2]; [11],3%
same,Antiulcer Action (inhibition %) after 17 hours,[2]; [4],72%
same,Antiulcer Action (inhibition %) after 17 hours,[2]; [5],80%
same,Death Ratio,[3]; 2340 mg/kg,1/5
"COC(=O)c1cccc2nc(/C=C/c3ccc(OC)c(OC)c3)[nH]c12.O=S(=O)(O)c1ccccc1 [Example 86, Methyl (E)-2-(3,4-dimethoxystyryl)benzimidazole-4-carboxylate benzenesulfonate]",Death Ratio,[1]; 2280 mg/kg,0/3
same,Antiulcer Action (inhibition %) after 17 hours,[2]; [11],4%
same,Antiulcer Action (inhibition %) after 17 hours,[2]; [4],35%
same,Antiulcer Action (inhibition %) after 17 hours,[2]; [5],98%
